Data reported in US20260207734A1 (priority 2021, published 2026).
Where two headings read alike, the source gives them in different places.

Tests used:
[1] = system: CD8+ T cells of HLA-A02:01-positive human donors; format: cell-based
[2] = system: MHC (HLA-I and HLA-II alleles); parameters: key: +: previously assayed and confirmed as HLA-A02:01 binders in ViPR; conditions: cited from earlier work
peripheral CD8+ T cells = system: peripheral CD8+ T cells; parameters: species or system human; conditions: in vivo
[3] = PBMCs from three HLA-A02:01-positive human donors, pMHC multimer positive CD8+ T cells

Chain of MHC (HLA-I and HLA-II alleles) (P61769 21-119): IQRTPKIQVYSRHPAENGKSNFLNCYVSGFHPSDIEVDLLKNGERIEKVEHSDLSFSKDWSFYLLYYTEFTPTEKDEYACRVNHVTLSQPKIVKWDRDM

KLNDLCFTNV
No. Donors with pMHC specific T tells [1, 3]: 2

LLLDRLNQL
Confirmed in VIPR [2]: + | No. Donors with pMHC specific T tells [1, 3]: 1

ILLNKHIDA
Confirmed in VIPR [2]: +

KLDDKDPNF
No. Donors with pMHC specific T tells [1]: 2

YLQPRTFLL
multimer+ of CD8+ (peripheral CD8+ T cells): 3.09

FLFLTWICL
No. Donors with pMHC specific T tells [1, 3]: 2

QYIKWPWYI
multimer+ of CD8+ (peripheral CD8+ T cells): 1.27

FLLPSLATV
No. Donors with pMHC specific T tells [1, 3]: 2

NLNESLIDL
Confirmed in VIPR [2]: +

GLTVLPPLL
No. Donors with pMHC specific T tells [1, 3]: 1

FGDDTVIEV
No. Donors with pMHC specific T tells [1, 3]: 3

YLGTGPEAGL
No. Donors with pMHC specific T tells [1]: 2

QPTESIVRF
multimer+ of CD8+ (peripheral CD8+ T cells): 0.17
